Here are results for one molecule from patent US11555210B2, “Microbe having increased tolerance to phenolic fermentation inhibitors” (University of Ottawa, priority 2018, dated 2023).

Holding throughout (type): cell-based, S. cerevisiae
The test system of one assay is zwf1Δ (YKB4794). Nature of the assay: dot assay on YPD agar plates. As to conditions: 10 mM FA, 35 mM 4-HBA or 1 mM CA, 48 hr at 30° C., compared to wild type. The method, then: (§1) Wild type (BY4741) along with zwf1Δ (YKB4794), sol2Δ (YKB4847), sol3Δ (YKB4848), gnd1Δ (YKB4797), gnd2Δ (YKB4850), rpe1Δ (YKB4795), tal1Δ (YKB4851) and tkl1Δ (YKB4796) deletion strains were grown to mid log phase in YPD medium prior to being diluted into fresh medium to an OD600of 0.1. Four 10-fold serial dilutions were spotted onto YPD agar plates containing either 1 mM coniferyl aldehyde (1 mM CA) or no coniferyl aldehyde (0 mM CA). Plates were incubated for 48 hr at 30° C. and images are representative of three biological replicates.
Wild type (BY4741), bna7Δ (YKB4649) and zwf1Δ (YKB4794) were grown to mid log phase in YPD medium prior to being diluted into fresh medium to an OD600 of 0.1. Four 10-fold serial dilutions were spotted onto YPD agar plates containing either no compound (Untreated), 10 mM ferulic acid (FA), 35 mM 4-hydroxybenzoic acid (4-HBA) or 1 mM coniferyl aldehyde (CA). Plates were incubated for 48 hr at 30° C. and images are representative of three biological replicates.

The next assay deals with gnd1Δ (YKB4797). Nature of the assay: dot assay on YPD agar plates. To be noted: 1 mM coniferyl aldehyde, 48 hr at 30° C. As to the method: as §1
Another assay deals with rpe1Δ (YKB4795). Description: dot assay on YPD agar plates. As to conditions: 1 mM coniferyl aldehyde, 48 hr at 30° C. As to the method: as §1
For the next assay, the system named is tkl1Δ (YKB4796). Description: dot assay on YPD agar plates. To be noted: 1 mM coniferyl aldehyde, 48 hr at 30° C. The method, then: as §1
For assay [1], the system named is Zwf1-GFP. Description: Zwf1-GFP fluorescence microscopy. The method, then: For the microscopy studies, wild type cells expressing endogenously tagged Zwf1-GFP (YKB4825) were grown to mid log in YPD, prior to being washed and resuspended in YPD medium (Untreated) or YPD medium containing 2 mM coniferyl aldehyde (CA) for 120 min at 30° C. Images (FIG. 8A) are representative of three independent experiments where a minimum of 100 cells each were imaged. Scale bar represents 10 μm.

In the next assay the test system is Zwf1. Description: Zwf1 protein quantification by western blot. As to conditions: 2 mM coniferyl aldehyde, 2 hours at 30° C.; ρ=0.00176. The method, then:
Protein quantification was carried out by western blots as follows. Overnight cultures of wild type cells were diluted in fresh YPD medium to a final OD600 of 0.1. These were grown at 30° C. until they reached the early log phase. Subsequently, coniferyl aldehyde was added to the cultures to a final concentration of 2 mM and the cultures were further incubated for 2 hours. Whole cell extracts (WCE) were obtained by centrifugation of the cells (3000 rpm for 3 min; 4° C.), washing of cell pellet with chilled sterile water and cell lysis using the Trichloroacetic acid (TCA) protocol (Kao and Osley, 2003, Methods. 31,59-66). Equal number of cells was used for the TCA lysis and equal volumes of WCE were used for the quantitative western blot analysis. […] Prior to the protein level quantification, the linear range of the target protein Zwf1 was determined by loading seven 2-fold dilutions of the WCE to obtain a standard curve of protein load versus band intensity of Zwf1. The amount of Zwf1 in the coniferyl aldehyde treated cultures and the control was quantified using the Image Lab software as previously described (Taylor and Posch, 2014, BioMed Research International. 2014, 361590). This was calculated as the ratio of the Zwf1 band intensity to the intensity of bands in the entire lane signal using the TGX Stain-Free Fast Cast (total proteins). […]
For orientation: A western blot detects proteins with antibodies after separation by electrophoresis.

The test system of assay [2] is Sol2-GFP, Sol3-GFP and Rpe1-GFP. Description: fluorescence microscopy of GFP-tagged pentose phosphate pathway proteins. To be noted: 2 mM coniferyl aldehyde.
Assay [3] deals with Zwf1-GFP. Nature of the assay: co-localization of Zwf1-GFP with mitochondrial and ER markers. An excerpt:
For co-localization studies, images were obtained as Z-stacks. Co-localization of the fluorescence signals were quantified using the IMARIS software 9.2.1 (Bitplane; http://www.bitplane.com) and a Manders' overlap co-efficient (Manders et al., 1993, Journal of Microscopy. 169, 375-382) was used to evaluate the fraction of RFP pixels (organelle marker) also positive for GFP pixels ([…]). The closer the value is to one, the higher the level of co-localization. The analysis was complemented by performing an object-based quantification where the percentage volume of ROS that localized to the mitochondria and endoplasmic reticulum was measured.
A strain expressing endogenously tagged Zwf1-GFP and either the mitochondrial marker CIT1-RFP or the ER marker SEC13-RFP were imaged as described in Example 5 both before and after 2 hours of treatment with 2 mM coniferyl aldehyde. […] Using the object-based analysis, the percentage volume of Zwf1 localizing to the mitochondria was measured as 47.10±8.04%. Likewise, co-localization of Zwf1-GFP to the ER marker Sec13-RFP was observed, though to a lesser extent, and confirmed by a quantitative analysis using a Mander's overlap co-efficient (0.22±0.07). (FIG. 11B).

Where [4] appears, read: 2 hours of treatment with 2 mM coniferyl aldehyde.

Each structure is given as a SMILES string. Entries after “also recorded” stand apart in the source; their conditions may differ.

As for `COc1cc(C=CC=O)ccc1O` [coniferyl aldehyde, 4-hydroxy-3-methoxycinnamaldehyde], the “growth of zwf1Δ on agar plates” value in the assay with zwf1Δ (YKB4794) was “no growth; also recorded: limited growth”. Further, in the assay with gnd1Δ (YKB4797), the “growth of gnd1Δ on agar plates” value is “no growth”. The “growth of rpe1Δ on agar plates” value with rpe1Δ (YKB4795) is “no growth”. In addition, the “growth of tkl1Δ on agar plates” value with tkl1Δ (YKB4796) is on record as “no growth”. In the assay with Zwf1-GFP [1] (2 mM CA for 120 min at 30° C. (ρ=9.69E-5), ferulic acid 10 mM), the Zwf1-GFP fluorescence signal/cell entry was “significant increase”. For the same molecule, in the assay on Zwf1-GFP [1] (2 mM coniferyl aldehyde, 2 hours), the Zwf1-GFP localization entry is “punctuate localization”. Further, the “increase in Zwf1 protein levels compared to untreated” value with Zwf1 came out at 1.5 fold. The “localization of Sol2-GFP, Sol3-GFP and Rpe1-GFP signal” value in assay [2] is reported as “concentration of signal into punctate structures”. Further, in the assay on Zwf1-GFP [3] (setting [4]), the “Mander's overlap co-efficient, Zwf1-GFP with ER marker Sec13-RFP” value is 0.22±0.07 and the “Manders' overlap coefficient, Zwf1-GFP with mitochondrial marker CIT1-RFP” value came out at 0.34±0.07. The “percentage volume of Zwf1 localizing to the mitochondria” value in the assay with Zwf1-GFP [3] (2 hours, 2 mM coniferyl aldehyde, object-based analysis) stood at 47.10±8.04%.
